This data set in a line: Stability of CBD in simulated gastric fluid (SGF). In kind it is physicochemical. To be noted: 37° C. How it is done: A medium of stimulating gastric fluid (SGF) was prepared by dissolving sodium chloride (0.2 w/v %) and hydrochloric acid (0.1M) in DDW, and incubated at 37° C.
For MeOH solution sodium dodecyl sulfate (1 w/v %) was added to the SGF. 500 ml of SGF mediums was contained in an appropriate Erlenmeyer flask. At time 0-1 ml of each CBD stock solution was added to the SGF. The mixture was vigorously shaken at a water bath warmed to 37° C. and immediately 1 ml of the solution was sampled and replaced with an equal volume of preheated SGF medium. Similarly, same volume was sampled at 5, 10, 15, 20, 30, 45, 60, 75, 90, 120, 150 and 180 minutes. Each 1 mL sample was immediately neutralized to a pH of 7 to 9, with 980 μL of 0.1M sodium hydroxide solution and 3 ml MeOH, and pH levels were tested. All samples were kept at 4° C. until HPLC analysis.
For MeOH solution and AX1 system additional samples were taken every 30 min and injected directly into the HPLC without further treatment. […] The measured CBD concentration was divided to the initial concentration (C/C0) at each time point.
In comparison, the CBD profile in SGF with a commercial product (‘RSHO’™—containing CBD dissolved in vegetable oil) and CBD dissolved in pure olive oil were evaluated.

For the molecule `C=C(C)[C@@H]1CCC(C)=C[C@H]1c1c(O)cc(CCCCC)cc1O` [CBD in MeOH, cannabidiol], the “Start of CBD degradation” value is 5 min. Also, the CBD left entry (after 2 hours) is “less than 4%”. For the same molecule, the “CBD degradation in SGF (in words)” value (up to 180 min) is on record as “significant degradation over time”. The CBD decomposed (within 30 min) is 68%.
